Reference: patent publication US20170319563A1, “STEROID-FREE DISEASE MANAGEMENT” (Asana BioSciences, LLC, priority 2014, published 2017)
Read-outs that look alike come from different tables or passages of the source.

Key:
testosterone synthesis = assay: Cell-based functional assay: testosterone synthesis inhibition in H295R cells; set-up: species or system human; details: for EC50: Homo sapiens, NCI-H295R, H295R cells; for IC50 / testosterone/cortisol synthesis inhibition ratio: human adrenal NCI-H295R cells
Method: Cell-Based Functional Assay: Testosterone Synthesis Inhibition
To understand how the inhibition of CYP17 lyase impacts testosterone synthesis, testosterone levels were measured in H295R adrenocortical carcinoma cells. This assay was conducted as described previously as Example 86 in WO 2013/049559 (published in the US as United States Patent Application Publication No. US 2013/0085148).

CYP17 C17,20-lyase [1] = target: T1, CYP17 C17,20-lyase (Homo sapiens, UniProt P05093); assay: Cell-based CYP17 C17,20-lyase assay in H295R cells
T1 construct: These cells have intact testosterone synthesis pathway; host or cells: NCI-H295R human adrenocortical carcinoma cells
T1 sequence (P05093 1-508): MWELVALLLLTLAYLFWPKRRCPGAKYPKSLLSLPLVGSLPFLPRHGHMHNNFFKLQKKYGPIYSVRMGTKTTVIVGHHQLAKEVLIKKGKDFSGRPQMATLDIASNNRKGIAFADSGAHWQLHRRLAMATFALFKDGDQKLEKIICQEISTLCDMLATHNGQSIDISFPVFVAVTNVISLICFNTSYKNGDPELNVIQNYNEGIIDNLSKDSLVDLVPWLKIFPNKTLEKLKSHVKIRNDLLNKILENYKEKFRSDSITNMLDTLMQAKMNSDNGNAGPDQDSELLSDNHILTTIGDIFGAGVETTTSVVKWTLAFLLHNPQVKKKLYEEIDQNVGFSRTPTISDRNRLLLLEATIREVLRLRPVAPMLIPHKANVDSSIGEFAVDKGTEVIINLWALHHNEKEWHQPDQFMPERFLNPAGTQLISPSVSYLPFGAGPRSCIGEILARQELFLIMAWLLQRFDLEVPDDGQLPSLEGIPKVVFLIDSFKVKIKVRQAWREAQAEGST
Method: Cell-Based CYP17 C17,20-Lyase Assay
To test the inhibitory effect of compounds on CYP17 C17,20-lyase activity in cells, human adrenocortical carcinoma H295R cells (ATCC) were used. These cells have intact testosterone synthesis pathway and are ideal to study the effect of compounds on various enzymes involved in this pathway. The cell-based CYP17 C17,20-Lyase assay was conducted as described previously as Example 85 in WO 2013/049559 (published in the US as United States Patent Application Publication No. US 2013/0085148).

corticosterone synthesis = assay: Cell-based functional assay: corticosterone synthesis inhibition in H295R cells; set-up: species or system human
Method: Cell-Based Functional Assay: Corticosterone Synthesis Inhibition
The H295R cell based assay was used to examine effects on corticosterone synthesis. The DetectX® Corticosterone Immunoassay kit (Arbor Assays, Cat. No. K014-H1) measures Corticosterone present in extracted dried fecal samples, serum, plasma and tissue culture media samples.
(§1) Standard Preparation • 1. Label seven test tubes as #1 through #7. • 2. Pipet 450 μL of Assay Buffer into tube #1 and 250 μL into tubes #2 to #7. • 3. The corticosterone stock solution contains an organic solvent. Pre-rinse the pipet tip several times to ensure accurate delivery. • 4. Carefully add 50 μL of the corticosterone stock solution to tube #1 and vortex completely. • 5. Take 250 μL of the corticosterone solution in tube #1 and add it to tube #2 and vortex completely. • 6. Repeat the serial dilutions for tubes #3 through #7. • 7. The concentration of corticosterone in tubes 1 through 7 will be 5,000, 2,500, 1,250, 625, 312.5, 156.25 and 78.125 pg/mL.
(§2) Assay Protocol • 1. Subculture H295R (Human Adreno Cortical Carcinoma cell line ATCC# CRL-2128) cells and seed 60,000 cells per well in a poly-d lysine plate and leave it overnight at 37° C. • 2. Add 50 μl of serially diluted compounds from a 5×plate. • 3. Incubate overnight at 37° C. (˜16 hours). • 4. Collect media/cell culture supernatant and dilute appropriately for Corticosterone estimation (1:10 Diluted with assay buffer). • 5. Pipet 50 μL of samples or standards into wells in the plate. • 6. Pipet 75 μL of Assay Buffer into the non-specific binding (NSB) wells. • 7. Pipet 50 μL of Assay Buffer into wells to act as maximum binding wells (Bo or 0 pg/mL). • 8. Add 25 μL of the DetectX® Corticosterone Conjugate to each well using a repeater pipet. • 9. Add 25 μL of the DetectX® Corticosterone Antibody to each well, except the NSB wells, using a repeater pipet. • 10. Gently tap the sides of the plate to ensure adequate mixing of the reagents. Cover the plate with the plate sealer and shake at room temperature for 1 hour. If the plate is not shaken signals bound will be approximately 45% lower. • 11. Aspirate the plate and wash each well 4 times with 300 μL wash buffer. Tap the plate dry on clean absorbent towels. • 12. Add 100 μL of the TMB Substrate to each well, using a repeater pipet. • 13. Incubate the plate at room temperature for 30 minutes without shaking. • 14. Add 50 μL of the Stop Solution to each well, using a repeater or a multichannel pipet. • 15. Read the optical density generated from each well in a plate reader capable of reading at 450 nm. • 16. Use the plate reader's built-in 4PLC software capabilities to calculate Corticosterone concentration for each sample.

cortisol synthesis = assay: Cell-based functional assay: cortisol synthesis inhibition in H295R cells; set-up: species or system human
Method: Cell-Based Functional Assay: Cortisol Synthesis Inhibition
The H295R cell based assay was used to examine effects on cortisol synthesis. The DetectX® Cortisol Immunoassay kit (Arbor Assays, Cat. No. K003-H1) measures Cortisol present in extracted dried fecal samples, serum, plasma and tissue culture media samples.
as §1, with “Cortisol” for “corticosterone”
as §2, with “Cortisol” for “Corticosterone”, “diluted” for “Diluted”, “(B0” for “(Bo”

CYP17 C17,20-lyase [2] = target: T1, CYP17 C17,20-lyase; assay: CYP17 lyase assay in human testicular microsomes; assay type: biochemical
Excerpt: ASN001 has one chiral center. The individual enantiomers of ASN001 are both potent and selective inhibitors of CYP17. […] Similar relative potency results for the racemate and enantiomers have also been obtained experimentally in rat testicular microsomes and human H295R adrenocortical carcinoma cells. In summary ASN001 and its individual enantiomers are all potent inhibitors of CYP17 activity and testosterone synthesis in biochemical and cellular functional assays.
(§3) General procedures for the in vitro and in vivo studies discussed above have been described previously in WO 2013/049559 (published in the US as United States Patent Application Publication No. US 2013/0085148; see e.g. Examples 84-88). The inhibitory effect of compounds on human CYP17 lyase activity in vitro in human testicular microsomes (CelsisIVT, US) was determined in a similar manner to the CYP17 lyase assay in rat testicular microsomes described previously as Example 84 in WO 2013/049559 (published in the US as United States Patent Application Publication No. US 2013/0085148), except that human testicular microsomes were used instead of rat testicular microsomes.

[3] = Food effect and bioavailability in rats; assay type: in vivo, rat
Excerpt: Accordingly, the dosage forms, regimens and methods of administration described herein may be accomplished on humans in the fed or fasted state and with food or without. Thus, the methods described herein could include administration of a therapeutically effective amount of ASN001, as a substantially pure enantiomer, as a mixture or as a racemic mixture, which is “food indifferent” which means with or without food to a patient in a fed or fasted state. Examples include, without limitation, with food, to a patient who has consumed food in the last two hours, without food, and/or to a patient who has not eaten in the last two hours.

male SD rats [4] = assay: Prostate and seminal vesicle weights after 14 days repeat oral administration; assay type: in vivo
Method: The effect of ASN001 and its individual enantiomers on prostate and seminal vesicle weights was evaluated after 14 days repeat oral administration in male SD rats. ASN001 caused a dose-dependent reduction of the prostate and seminal vesicle weights.
(In a prior test using ASN001 at 30 mg/kg once a day (QD) PO×14 days, not made in comparison to either enantiomer, but using the same general protocol, the reduction in prostate and seminal vesicle weights was “about 50%” and “about 60%” respectively. See Example 88 of WO 2013/049559.)
as §3

male SD rats [5] = details: prior test, 30 mg/kg QD PO x 14 days; Example 88 of WO 2013/049559; cited from earlier work
[6] = H295R cells, average of multiple runs, read-out: CYP17 C17,20-lyase average IC50
[7] = human adrenal NCI-H295R cells, read-out: 17,20-Lyase IC50
[8] = Homo sapiens, NCI-H295R, H295R cells, read-out: corticosterone synthesis inhibition IC50
[9] = human adrenal NCI-H295R cells, read-out: corticosterone synthesis IC50
[10] = Homo sapiens, NCI-H295R, H295R cells, read-out: cortisol synthesis inhibition IC50
[11] = human adrenal NCI-H295R cells, read-out: cortisol synthesis IC50

| IC50 (CYP17 C17,20-lyase [2]) [nM] | SMILES | EC50 (testosterone synthesis) [nM] | IC50 (testosterone synthesis) [nM] | testosterone/cortisol synthesis inhibition ratio (testosterone synthesis) | IC50 (CYP17 C17,20-lyase [1]; [6]) [nM] | IC50 (CYP17 C17,20-lyase [1]; [7]) [nM] | IC50 (corticosterone synthesis; [8]) [nM] | IC50 (corticosterone synthesis; [9]) [nM] | IC50 (cortisol synthesis; [10]) [nM] | IC50 (cortisol synthesis; [11]) [nM] | reduction in prostate weight (male SD rats [4]; 10 mg/kg BID PO x 14 days) [%] | reduction in seminal vesicle weight (male SD rats [4]; 10 mg/kg BID PO x 14 days) [%] | other results |
| --- | --- | --- | --- | --- | --- | --- | --- | --- | --- | --- | --- | --- | --- |
| – | C[C@]12CC[C@H](O)CC1=CC[C@@H]1[C@@H]2CC[C@]2(C)C(c3cccnc3)=CC[C@@H]12 [Abiraterone, abiraterone, reference compound] | 5 | 5 | <0.2 | 2.8 | 3 | 65 | 65 | 0.68 | < 1 | – | – | – |
| 15 | CC(O)(c1ccncc1)c1cnc(-c2ccc(F)cc2)s1 (racemic) [ASN001, 1-(2-(4-fluorophenyl)thiazol-5-yl)-1-(pyridin-4-yl)ethanol] | 54 | 54 | 6.5 | 50 | 50 | 2800 | 2800 | 346 | 350 | 24 | 48 | bioavailability ([3]; rat and other non-clinical species): quite high; food effect ([3]; rats): does not exhibit a food effect; difference between C17,20-lyase inhibition and cortisol biosynthesis inhibition (CYP17 C17,20-lyase [1]; adrenal NCI-H295R cells): ~7 fold; reduction in prostate weight (male SD rats [4]; 30 mg/kg QD PO x 14 days): 29%; reduction in seminal vesicle weight (male SD rats [4]; 30 mg/kg QD PO x 14 days): 43%; reduction in prostate weight (male SD rats [5]): about 50%; reduction in seminal vesicle weight (male SD rats [5]): about 60% |
| 8 | CC(O)(c1ccncc1)c1cnc(-c2ccc(F)cc2)s1 (single isomer, unassigned; (-)) [(−)ASN001] | – | – | – | – | – | – | – | – | – | 30 | 31 | reduction in prostate weight (male SD rats [4]; 15 mg/kg QD PO x 14 days): 17%; reduction in seminal vesicle weight (male SD rats [4]; 15 mg/kg QD PO x 14 days): 27% |
| 63 | CC(O)(c1ccncc1)c1cnc(-c2ccc(F)cc2)s1 (single isomer, unassigned; (+)) [(+)ASN001] | – | – | – | – | – | – | – | – | – | – | – | – |
